What was measured:
[1] = tested on: pSLP76(S376) level in Jurkat cell line; assay: Cellular pSLP76(S376) HTRF Assay; type: cell-based; conditions: Jurkat cells, 2 h compound treatment, stimulated with 0.05 μg/mL anti-human CD3 (OKT3) for 30 min
[2] = target: HPK1 kinase (aal-346. Life Technologies) (Homo sapiens (Human), UniProt Q92918); assay: HPK Kinase Activity Assay at 1 mM ATP (TR-FRET); type: biochemical; conditions: HPK1 kinase 40 nM, 0.5 μM STK1 substrate, read-out: Enzymatic activity IC50
HPK1 kinase (aal-346. Life Technologies), sequence (Q92918 1-346): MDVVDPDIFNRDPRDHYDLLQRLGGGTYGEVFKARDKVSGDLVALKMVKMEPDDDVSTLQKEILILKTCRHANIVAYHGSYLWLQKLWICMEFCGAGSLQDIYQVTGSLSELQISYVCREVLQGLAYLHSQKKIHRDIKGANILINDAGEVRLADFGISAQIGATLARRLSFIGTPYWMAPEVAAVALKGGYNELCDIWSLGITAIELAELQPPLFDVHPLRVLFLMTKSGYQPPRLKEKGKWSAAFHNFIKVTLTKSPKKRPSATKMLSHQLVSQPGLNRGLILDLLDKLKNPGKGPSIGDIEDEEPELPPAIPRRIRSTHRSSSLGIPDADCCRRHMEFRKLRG

IC50 ([1]; Homo sapiens, Jurkat) | IC50 [2] | SMILES | IC50 [1]
54 nM | 9 nM | Cc1cc(-c2cnc(N)c(Oc3cnn(C4CCN(C)CC4)c3)n2)cc(C2(NS(C)(=O)=O)CC2)c1 [Example A11, N-(1-(3-(5-amino-6-((1-(1-methylpiperidin-4-yl)-1H-pyrazol-4-yl)oxy)pyrazin-2-yl)-5-methylphenyl)cyclopropyl)methanesulfonamide] | –
83 nM | 58 nM | Cc1cc(-c2cnc(N)c(Oc3cnn(C4CCN(C)CC4)c3)n2)cc(C2(O)COC2)c1Cl [Example A84, 3-(5-(5-amino-6-((1-(1-methylpiperidin-4-yl)-1H-pyrazol-4-yl)oxy)pyrazin-2-yl)-2-chloro-3-methylphenyl)oxetan-3-ol] | –
91 nM | 40 nM | Cc1cc(-c2cnc(N)c(Oc3cnn(C4CCN(C)CC4)c3)n2)cc(C)c1CNC1(C)COC1 [Example A60, 5-(3,5-dimethyl-4-(((3-methyloxetan-3-yl)amino)methyl)phenyl)-3-((1-(1-methylpiperidin-4-yl)-1H-pyrazol-4-yl)oxy)pyrazin-2-amine] | –
33 nM | 10 nM | Cc1cc(-c2cnc(N)c(Oc3cnn(C4CCN(C)CC4)c3)n2)cc(C2(O)COC2)c1 [Example A54, 3-(3-(5-amino-6-((1-(1-methylpiperidin-4-yl)-1H-pyrazol-4-yl)oxy)pyrazin-2-yl)-5-methylphenyl)oxetan-3-ol] | –
111 nM | 34 nM | Cc1cc(-c2cnc(N)c(Oc3cnn(C4CCN(C)CC4)c3)n2)cc(C)c1CNC1COC1 [Example A55, 5-(3,5-dimethyl-4-((oxetan-3-ylamino)methyl)phenyl)-3-((1-(1-methylpiperidin-4-yl)-1H-pyrazol-4-yl)oxy)pyrazin-2-amine] | –
71 nM | 12 nM | CN1CCC(n2cc(Oc3nc(-c4cc(C5CCOCC5)cc(C5(O)COC5)c4)cnc3N)cn2)CC1 [Example A79, 3-(3-(5-amino-6-((1-(1-methylpiperidin-4-yl)-1H-pyrazol-4-yl)oxy)pyrazin-2-yl)-5-(tetrahydro-2H-pyran-4-yl)phenyl)oxetan-3-ol] | –
124 nM | 44 nM | CC1OCCC1(O)c1cc(-c2cnc(N)c(Oc3cnn(C4CCN(C)CC4)c3)n2)cc(N2CCOC[C@H]2C)c1 (single isomer, unassigned) [Example A95A] | –
188 nM | 104 nM | CONC(=O)c1c(C)cc(-c2cnc(N)c(Oc3cnn(C4CCN(C)CC4)c3)n2)cc1C [Example A21, 4-(5-amino-6-((1-(1-methylpiperidin-4-yl)-1H-pyrazol-4-yl)oxy)pyrazin-2-yl)-N-methoxy-2,6-dimethylbenzamide] | –
82 nM | 11 nM | CNS(=O)(=O)c1cc(-c2cnc(N)c(Oc3cnn(C4CCN(C)CC4)c3)n2)cc(N2CCOC[C@H]2C)c1 [Example A49, (R)-3-(5-amino-6-((1-(1-methylpiperidin-4-yl)-1H-pyrazol-4-yl)oxy)pyrazin-2-yl)-N-methyl-5-(3-methylmorpholino)benzenesulfonamide] | –
117 nM | 44 nM | Cc1cc(-c2cnc(N)c(Oc3cnn(C4CCN(C)CC4)c3)n2)cc(S(=O)(=O)NCCC#N)c1 [Example A10, 3-(5-amino-6-((1-(1-methylpiperidin-4-yl)-1H-pyrazol-4-yl)oxy)pyrazin-2-yl)-N-(2-cyanoethyl)-5-methylbenzenesulfonamide] | –
64 nM | 11 nM | C[C@@H]1COCCN1c1cc(-c2cnc(N)c(Oc3cnn(C4CCN(C)CC4)c3)n2)cc(C2(O)CCCOC2)c1 (stereo partly drawn) [Example A89, 3-(3-(5-amino-6-((1-(1-methylpiperidin-4-yl)-1H-pyrazol-4-yl)oxy)pyrazin-2-yl)-5-((R)-3-methylmorpholino)phenyl)tetrahydro-2H-pyran-3-ol] | –
35 nM | 44 nM | Cc1cc(-c2cnc(N)c(Oc3cnn(C4CCN(C)CC4)c3)n2)cc(S(N)(=O)=O)c1 [Example A6, 3-(5-amino-6-((1-(1-methylpiperidin-4-yl)-1H-pyrazol-4-yl)oxy)pyrazin-2-yl)-5-methylbenzenesulfonamide] | –
76 nM | 6.7 nM | CCC(C)(O)c1cc(C)cc(-c2cnc(N)c(Oc3cnn(C4CCN(C)CC4)c3)n2)c1 (stereo not drawn) [Example A70, 2-(3-(5-amino-6-((1-(1-methylpiperidin-4-yl)-1H-pyrazol-4-yl)oxy)pyrazin-2-yl)-5-methylphenyl)butan-2-ol] | –
51 nM | 5.5 nM | CN1CCC(n2cc(Oc3nc(-c4cc(N5CC6(COC6)C5)cc(C5(O)COC5)c4)cnc3N)cn2)CC1 [Example A78, 3-(3-(5-amino-6-((1-(1-methylpiperidin-4-yl)-1H-pyrazol-4-yl)oxy)pyrazin-2-yl)-5-(2-oxa-6-azaspiro[3.3]heptan-6-yl)phenyl)oxetan-3-ol] | –
129 nM | 29 nM | Cc1cc(-c2cnc(N)c(Oc3cnn(C4CCN(C)CC4)c3)n2)cc(C)c1C1=CCOCC1 [Example A75, 5-(4-(3,6-dihydro-2H-pyran-4-yl)-3,5-dimethylphenyl)-3-((1-(1-methylpiperidin-4-yl)-1H-pyrazol-4-yl)oxy)pyrazin-2-amine] | –
121 nM | 12 nM | CNCc1cc(-c2cnc(N)c(Oc3cnn(C4CCN(C)CC4)c3)n2)cc(N2CCC[C@H]2C)n1 [Example B2, (R)-5-(2-((methylamino)methyl)-6-(2-methylpyrrolidin-1-yl)pyridin-4-yl)-3-((1-(1-methylpiperidin-4-yl)-1H-pyrazol-4-yl)oxy)pyrazin-2-amine] | –
63 nM | 16 nM | Cc1cc(-c2cnc(N)c(Oc3cnn(C4CCN(C)CC4)c3)n2)cc(C)c1CNC(=O)NC(C)(C)C [Example A53, 1-(4-(5-amino-6-((1-(1-methylpiperidin-4-yl)-1H-pyrazol-4-yl)oxy)pyrazin-2-yl)-2,6-dimethylbenzyl)-3-(tert-butyl)urea] | –
120 nM | 139 nM | CNS(=O)(=O)c1cc(C)cc(-c2cnc(N)c(Oc3cnn(C4CCNCC4)c3)n2)c1 [Example A13, 3-(5-amino-6-((1-(piperidin-4-yl)-1H-pyrazol-4-yl)oxy)pyrazin-2-yl)-N,5-dimethylbenzenesulfonamide] | –
82 nM | 30 nM | CNC(=O)NCc1c(C)cc(-c2cnc(N)c(Oc3cnn(C4CCN(C)CC4)c3)n2)cc1C [Example A26, 1-(4-(5-amino-6-((1-(1-methylpiperidin-4-yl)-1H-pyrazol-4-yl)oxy)pyrazin-2-yl)-2,6-dimethylbenzyl)-3-methylurea] | –
105 nM | 17 nM | Cc1cc(-c2cnc(N)c(Oc3cnn(C4CCN(C)CC4)c3)n2)cc(C2(O)CCOC2)c1N1CC2(COC2)C1 (stereo not drawn) [Example A83, 3-(5-(5-amino-6-((1-(1-methylpiperidin-4-yl)-1H-pyrazol-4-yl)oxy)pyrazin-2-yl)-3-methyl-2-(2-oxa-6-azaspiro[3.3]heptan-6-yl)phenyl)tetrahydrofuran-3-ol] | –
70 nM | 35 nM | Cc1cc(-c2cnc(N)c(Oc3cnn(C4CCN(C)CC4)c3)n2)cc(C)c1C(=O)NCCN1CCCCC1 [Example A5, 4-(5-amino-6-(1-(1-methylpiperidin-4-yl)-1H-pyrazol-4-yloxy)pyrazin-2-yl)-2,6-dimethyl-N-(2-(piperidin-1-yl)ethyl)benzamide] | –
91 nM | 38 nM | Cc1cc(-c2cnc(N)c(Oc3cnn(C4CCN(C)CC4)c3)n2)cc(C)c1N1CC2(COC2)C1 [Example A77, 5-(3,5-dimethyl-4-(2-oxa-6-azaspiro[3.3]heptan-6-yl)phenyl)-3-((1-(1-methylpiperidin-4-yl)-1H-pyrazol-4-yl)oxy)pyrazin-2-amine] | –
26 nM | 6 nM | CNS(=O)(=O)c1cc(-c2cnc(N)c(Oc3cnn(C4CCN(C)CC4)c3)n2)cc(N2CCC[C@H]2C)c1 [Example A43, (R)-3-(5-amino-6-((1-(1-methylpiperidin-4-yl)-1H-pyrazol-4-yl)oxy)pyrazin-2-yl)-N-methyl-5-(2-methylpyrrolidin-1-yl)benzenesulfonamide] | –
35 nM | 6 nM | CNS(=O)(=O)c1cc(-c2cnc(N)c(Oc3cnn(C4CCN(C)CC4)c3)n2)cc(N2CCCC2)c1 [Example A23, 3-(5-amino-6-((1-(1-methylpiperidin-4-yl)-1H-pyrazol-4-yl)oxy)pyrazin-2-yl)-N-methyl-5-(pyrrolidin-1-yl)benzenesulfonamide] | –
125 nM | 33 nM | Cc1cc(-c2cnc(N)c(Oc3cnn(C4CCN(C)CC4)c3)n2)cc(C)c1CNS(=O)(=O)C1CCCC1 [Example A40, N-(4-(5-amino-6-((1-(1-methylpiperidin-4-yl)-1H-pyrazol-4-yl)oxy)pyrazin-2-yl)-2,6-dimethylbenzyl)cyclopentanesulfonamide] | –
119 nM | 15 nM | CC1OCCC1(O)c1cc(-c2cnc(N)c(Oc3cnn(C4CCN(C)CC4)c3)n2)cc(N2CCOC[C@H]2C)c1 (stereo partly drawn) [Example A94, 3-(3-(5-amino-6-((1-(1-methylpiperidin-4-yl)-1H-pyrazol-4-yl)oxy)pyrazin-2-yl)-5-((R)-3-methylmorpholino)phenyl)-2-methyltetrahydrofuran-3-ol] | –
– | 4.5 nM | CC1OCCC1(O)c1cc(-c2cnc(N)c(Oc3cnn(C4CCN(C)CC4)c3)n2)cc(N2CCOC[C@H]2C)c1 (single isomer, unassigned) [Example A95B] | –
– | 82 nM | C[C@@H]1COCCN1c1cc(-c2cnc(N)c(Oc3cnn(C4CCN(C)CC4)c3)n2)cc(C2(O)CCCOC2)c1 (single isomer, unassigned) [Example A90A] | –
– | 253 nM | Cc1cc(-c2cnc(N)c(Oc3cnn(C4CCN(C)CC4)c3)n2)cc([C@H]2CCC(=O)N2)c1 [Example A61A, (R)-5-(3-(5-amino-6-((1-(1-methylpiperidin-4-yl)-1H-pyrazol-4-yl)oxy)pyrazin-2-yl)-5-methylphenyl)pyrrolidin-2-one] | –

SMILES | IC50 ([1]; Homo sapiens, Jurkat) | IC50 [2] | IC50 [1]
Cc1cc(-c2cnc(N)c(Oc3cnn(C4CCN(C)CC4)c3)n2)cc([C@@]2(O)CCOC2)c1 (single isomer, unassigned) [Example A74A] | – | 46 nM | 85 nM

Reference: patent US20240317714A1, “3-[(1H-PYRAZOL-R-YL)OXY]PYRAZIN-2-AMINE COMPOUNDS AS HPK1 INHIBITOR AND USE THEREOF” (BeiGene, Ltd., priority 2020, published 2024)
